Test results: patent US4761478A, “3-deazaguanine sulfonic acid salts” (Warner-Lambert Company, priority 1986, dated 1988)
“Also recorded” adds a separate entry of the source. Where a name gives a salt, the structure may show the parent alone. Read-outs that look alike come from different tables or passages of the source.

Columns and labels:
[1] = trimetrexate acid addition salts in water; data from U.S. Pat. No. 4,376,858; cited from earlier work
[2] = Water solubility of 3-deazaguanine and its acid addition salts (Table I); format: physicochemical; settings: for Solubility: 3-deazaguanine salts in water; for water solubility (in words) / ml Water Needed to Dissolve: 3-deazaguanine salts; for ml Water Needed to Dissolve: 250 mg 3-deazaguanine plus one equivalent weight of the acid, water added until complete solution
Experimental: The common acids employed for the formulation of acid addition salts of pharmaceutical bases are listed in J. Pharm. […] The solubility values presented in Table I were determined as follows: 3-deazaguanine (250 mg) was suspended in a small volume of water and one equivalent weight of the acid was added with stirring. Stirring was continued and small volumes of water were added intermittently until complet solution was obtained.

[3] = Solubility of trimetrexate acid addition salts in water (Table II); format: physicochemical; settings: decreasing order of solubility
[4] = Relative solubility of m-AMSA acid addition salts (Table III); format: physicochemical
[5] = Aqueous solution of 3-deazaguanine methanesulfonate salt remaining clear and free of precipitate; format: physicochemical; settings: in water
Experimental: To a slurry of 24.5 g of 6-amino-1,5-dihydro-4H-imidazo-[4,5-c]pyridin-4-one (3-deazaguanine) in 250 ml of methyl alcohol was added a solution of 17.0 g of methanesulfonic acid in 50 ml of methyl alcohol. The mixture was stirred at room temperature for about 10 minutes, filtered, and the filter cake washed with methyl alcohol to give, after drying, 35.5 g (88%) of 3-deazaguanine methanesulfonate salt, mp 273°-275° C. This material produced a solution in water at a concentration of 41 mg/ml which remained clear and free of any precipitate for more than three days.

[6] = Chemical stability of the sodium salt of 3-deazaguanine in aqueous solution; format: physicochemical; settings: aqueous solution of sodium salt of 3-deazaguanine

SMILES | Solubility [1] | Solubility [2] | ml Water Needed to Dissolve [2] | also measured
COc1cc(NCc2ccc3nc(N)nc(N)c3c2C)cc(OC)c1OC [2-Naphthalenesulfonic] | 150 µg/mL | – | – | –
COc1cc(NCc2ccc3nc(N)nc(N)c3c2C)cc(OC)c1OC [Ethoxyacetic] | 19500 µg/mL | – | – | –
Nc1cc2nc[nH]c2c(=O)[nH]1 [H2 SO4] | – | 800 to 1000 µg/mL | 250 to 300 mL | water solubility (in words) ([2]; water, listed as sulfate): poorly soluble; water solubility (in words) ([2]; water, listed as sulfate salt): lower solubility; solubility relative to the corresponding free base ([2]; sulfate salt of 3-deazaguanine vs free base): about one-half
Nc1cc2nc[nH]c2c(=O)[nH]1 [H3 PO4] | – | 1900 to 2100 µg/mL | 120 to 130 mL | –
Nc1cc2nc[nH]c2c(=O)[nH]1 [HCl] | – | 3300 to 3800 µg/mL | 65 to 75 mL | –
Nc1cc2nc[nH]c2c(=O)[nH]1 [Maleic] | – | 1600 to 1700 µg/mL | 150 to 160 mL | –
CS(=O)(=O)O.Nc1cc2nc[nH]c2c(=O)[nH]1 [Methanesulfonic, 3-deazaguanine methanesulfonate salt] | 9830 µg/mL | – | 5 mL | order of solubility among the trimetrexate salts tested [3]: sixth; water solubility (in words) ([2]; water): solubility advantage; Solubility ([2]; water, read-out: Solubility): 50000 µg/mL; solubility compared with other m-AMSA salts (in words) [4]: one of the least soluble salts; time the solution remained clear and free of any precipitate ([5]; 41 mg/ml): more than three; Solubility ([5]; read-out: concentration of solution produced in water): 41000 µg/mL
COc1cc(NCc2ccc3nc(N)nc(N)c3c2C)cc(OC)c1OC [p-Toluenesulfonic] | 1730 µg/mL | – | – | –
Nc1cc2nc[nH]c2c(=O)[nH]1 [sodium salt] | – | – | – | chemical stability in aqueous solution (in words) [6]: tend to begin to degrade within a few hours of formulation; also recorded: chemically unstable
